Measured values: ChEMBL document CHEMBL4007392, “Modulating Mineralocorticoid Receptor with Non-steroidal Antagonists. New Opportunities for the Development of Potent and Selective Ligands without Off-Target Side Effects” (J Med Chem, 2017)
Blank lines part the entries; values can stand above or below the compound they belong to.

What was measured:
[1] = target: T1, Mineralocorticoid receptor (Homo sapiens, UniProt P08235); test: Antagonist activity at Gal4-fused human MR LBD (672 to 984 residues) expressed in HEK293T cells assessed as inhibition of aldosterone-induced transactivation activity after 24 hrs by luciferase reporter gene assay; assay type: cell-based, HEK-293T
T1 sequence (P08235 whole entry): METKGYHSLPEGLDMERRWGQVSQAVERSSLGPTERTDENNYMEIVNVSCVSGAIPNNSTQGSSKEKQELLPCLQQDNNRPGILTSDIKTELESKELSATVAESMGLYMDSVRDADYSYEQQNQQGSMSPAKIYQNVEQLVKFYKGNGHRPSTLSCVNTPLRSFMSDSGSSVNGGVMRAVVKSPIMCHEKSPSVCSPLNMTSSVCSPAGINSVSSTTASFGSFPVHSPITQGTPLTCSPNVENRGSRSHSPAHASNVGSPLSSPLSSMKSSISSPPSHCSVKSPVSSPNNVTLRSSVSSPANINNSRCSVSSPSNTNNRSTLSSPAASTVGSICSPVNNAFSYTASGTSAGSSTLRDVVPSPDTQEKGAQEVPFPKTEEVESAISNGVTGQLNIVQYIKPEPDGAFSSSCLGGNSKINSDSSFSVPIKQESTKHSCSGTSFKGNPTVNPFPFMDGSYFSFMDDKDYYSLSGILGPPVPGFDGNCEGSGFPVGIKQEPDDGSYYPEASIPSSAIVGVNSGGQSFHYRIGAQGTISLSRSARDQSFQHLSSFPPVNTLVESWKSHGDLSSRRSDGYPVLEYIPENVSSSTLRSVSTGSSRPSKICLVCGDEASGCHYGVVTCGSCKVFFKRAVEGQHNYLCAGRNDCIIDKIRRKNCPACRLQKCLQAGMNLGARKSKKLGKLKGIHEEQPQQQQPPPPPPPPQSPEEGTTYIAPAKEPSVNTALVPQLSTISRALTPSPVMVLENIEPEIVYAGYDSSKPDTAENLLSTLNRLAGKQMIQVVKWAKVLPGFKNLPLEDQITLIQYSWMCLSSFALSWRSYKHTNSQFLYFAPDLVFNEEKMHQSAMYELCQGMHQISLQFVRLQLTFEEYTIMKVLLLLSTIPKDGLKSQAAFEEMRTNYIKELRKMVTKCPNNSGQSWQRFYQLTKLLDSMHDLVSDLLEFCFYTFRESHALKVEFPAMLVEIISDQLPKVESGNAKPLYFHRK

[2] = target: T1, Mineralocorticoid receptor; test: Antagonist activity at human MR overexpressed in HEK293 cells assessed as inhibition of aldosterone-induced response measured after overnight incubation by luciferase reporter gene assay; assay type: cell-based
[3] = target: T1, Mineralocorticoid receptor; test: Displacement of [3H]-Aldosterone from MR overexpressed in human 293 cells measured after 2 hrs by Microbeta scintillation counting method; assay type: cell-based
Rattus norvegicus [4] = test: In vivo antagonist activity at MR in rat assessed as inhibition aldosterone-induced decrease in urinary sodium/potassium ratio at 30 mg/kg, po after 8 hrs; assay type: functional
[5] = target: T1, Mineralocorticoid receptor; test: Displacement of [3H]-cortisol from MR overexpressed in human 293 cells measured after 2 hrs by Microbeta scintillation counting method; assay type: cell-based
Rattus norvegicus [6] = test: In vivo antagonist activity at MR in rat assessed as inhibition aldosterone-induced decrease in urinary sodium/potassium ratio at 3 mg/kg, po after 20 hrs; assay type: functional
[7] = target: T1, Mineralocorticoid receptor; test: Antagonist activity at Gal4-fused human MR LBD (734 to 985 residues) expressed in CHO-K1 cells after 5 to 6 hrs by luciferase reporter gene assay; assay type: cell-based
Homo sapiens = species: Homo sapiens; test: Ratio of IC50 for Gal4-fused human AR expressed in CHO-K1 cells to IC50 for Gal4-fused human MR expressed in CHO-K1 cells; assay type: cell-based
Rattus norvegicus [8] = test: In vivo antagonist activity at MR in rat assessed as inhibition aldosterone-induced decrease in urinary sodium/potassium ratio at 30 mg/kg, po after 20 hrs; assay type: functional

IC50 [1]: < 2 nM
SMILES: CC(=O)Oc1ccc(CCc2ccc3c(c2)NC(=O)CO3)c(C)c1

IC50 [2]: 21 nM
Ki [3]: 0.4 nM
SMILES: C[C@H](CN1CCOCC1)n1/c(=N\C#N)[nH]c2cc(/C=C3\c4ccccc4COc4cc(F)ccc43)ccc21

Ki [5]: 9 nM
SMILES: O=c1[nH]c2cc(/C=C3\c4ccccc4COc4cc(F)ccc43)ccc2n1[C@@H]1C[C@@H]2COCCN2C1

IC50 [7]: 28 to 43 nM
SMILES: CCOC(=O)C1=C(C)NC(C)=C(C(C)=O)[C@H]1c1cccc2c(=O)cc(C)oc12
Ratio IC50 (Homo sapiens): 160

Further lines, the compound ahead of its results:

SMILES: COC(=O)[C@@H]1CC2=CC(=O)CC[C@]2(C)[C@@]23O[C@@H]2C[C@@]2(C)[C@@H](CC[C@@]24CCC(=O)O4)[C@H]13 [EPLERENONE]
inhibition in vivo at 30 mg/kg (Rattus norvegicus [4]): 8%

SMILES: Cc1c(C(=O)Nc2ccc(S(C)(=O)=O)cc2)cn(CCO)c1-c1ccccc1C(F)(F)F (single isomer, unassigned; atropisomer 2)
inhibition in vivo at 3 mg/kg (Rattus norvegicus [6]): 56%

SMILES: CC(=O)S[C@@H]1CC2=CC(=O)CC[C@]2(C)[C@H]2CC[C@@]3(C)[C@@H](CC[C@@]34CCC(=O)O4)[C@H]12 [SPIRONOLACTONE]
inhibition in vivo at 30 mg/kg (Rattus norvegicus [8]): < 20%
